How the values were obtained:
sorghum = assay: Preemergent control of plant species; format: in vivo, Sorghum vulgare; conditions: Sorghum, pre-emergence, 336 h; 0.25 lb/acre; read-out: percent preemergent control
Summary of the method: (§1)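 Seeds planted in good agricultural soil beds; active ingredients then applied to the bed surface as aqueous emulsion at listed rates. Beds kept two weeks in greenhouse with watering. Control scored against water-treated beds.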

wheat = assay: Preemergent control of plant species; format: in vivo, Triticum aestivum; conditions: Triticum aestivum, pre-emergence, 336 h; 0.25 lb/acre; read-out: percent preemergent control
Summary of the method: as §1

corn = assay: Preemergent control of plant species; format: in vivo, Zea mays; conditions: Zea mays, pre-emergence, 336 h; 0.25 lb/acre; read-out: percent preemergent control
Summary of the method: as §1

jimsonweed = assay: Preemergent control of plant species; format: in vivo, Datura stramonium; conditions: Datura stramonium, pre-emergence, 336 h; 0.25 lb/acre; read-out: percent preemergent control
Summary of the method: as §1

yellow foxtail = assay: Preemergent control of plant species; format: in vivo, Setaria lutescens; conditions: Setaria, pre-emergence, 336 h; 0.25 lb/acre; read-out: percent preemergent control
Summary of the method: as §1

soybean = assay: Preemergent control of plant species; format: in vivo, Glycine max.; conditions: Glycine max, pre-emergence, 336 h; 0.25 lb/acre; read-out: percent preemergent control
Summary of the method: as §1

corn (First In) = assay: Gametocidal activity in corn, postemergent application; format: in vivo; conditions: sprayed at three leaf stage
Description: The compounds of this invention are also plant gametocides depending on the dosage and timing of application and the species of plant to which the compounds are applied. For example, certain of the compounds were sprayed on corn seedlings at the three leaf stage of growth, and the seedlings were returned to the greenhouse for subsequent growth and observation. The corn variety was "First In". The chemicals were dissolved in acetone, and the acetone solution was diluted with water containing Tween 20 wetting agent such that the final spray solution contained 50% acetone and 0.1% Tween 20 in water. […] Tabulated below are data which illustrate the use of the compounds of this invention as plant gametocides in corn.

velvetleaf = assay: Preemergent control of plant species; format: in vivo, Abutilon theophrasti; conditions: Abutilon theophrasti, pre-emergence, 336 h; 0.25 lb/acre; read-out: percent preemergent control
Summary of the method: as §1

barnyardgrass = assay: Preemergent control of plant species; format: in vivo, Echinochloa crusgalli; conditions: Echinochloa crus-galli, pre-emergence, 336 h; 0.25 lb/acre; read-out: percent preemergent control
Summary of the method: as §1

rice = assay: Preemergent control of plant species; format: in vivo, Oryza sativa; conditions: Oryza sativa, pre-emergence, 336 h; 0.25 lb/acre; read-out: percent preemergent control
Summary of the method: as §1

cotton = assay: Preemergent control of plant species; format: in vivo, Gossypium spp.; conditions: Gossypium hirsutum, pre-emergence, 336 h; 0.25 lb/acre; read-out: percent preemergent control
Summary of the method: as §1

yellow nutsedge = assay: Preemergent control of plant species; format: in vivo, Cyperus esculentus; conditions: Cyperus, pre-emergence, 336 h; 0.25 lb/acre; read-out: percent preemergent control
Summary of the method: as §1

rape = assay: Preemergent control of plant species; format: in vivo, Brassica napus; conditions: Brassica napus, pre-emergence, 336 h; 0.25 lb/acre; read-out: percent preemergent control
Summary of the method: as §1

annual morning glory = assay: Preemergent control of plant species; format: in vivo, Ipomoea spp.; conditions: Ipomoea, pre-emergence, 336 h; 0.25 lb/acre; read-out: percent preemergent control
Summary of the method: as §1

johnson grass = assay: Preemergent control of plant species; format: in vivo, Sorghum halepense; conditions: Sorghum halepense, pre-emergence, 336 h; 0.25 lb/acre; read-out: percent preemergent control
Summary of the method: as §1

sugar beet = assay: Preemergent control of plant species; format: in vivo, Beta saccharifera; conditions: Beta vulgaris, pre-emergence, 336 h; 0.25 lb/acre; read-out: percent preemergent control
Summary of the method: as §1

Row | SMILES | plant injury at 280.212 g/ha (sorghum) [%] | plant injury at 280.212 g/ha (wheat) [%] | plant injury at 280.212 g/ha (corn) [%] | pest or weed control at 280.212 g/ha (jimsonweed) [%] | pest or weed control at 280.212 g/ha (yellow foxtail) [%] | plant injury at 280.212 g/ha (soybean) [%] | concentration required to produce 100% control (gametocidal activity) (corn (First In)) [ppm] | pest or weed control at 280.212 g/ha (velvetleaf) [%] | pest or weed control at 280.212 g/ha (barnyardgrass) [%] | plant injury at 280.212 g/ha (rice) [%] | plant injury at 280.212 g/ha (cotton) [%] | pest or weed control at 280.212 g/ha (yellow nutsedge) [%] | plant injury at 280.212 g/ha (rape) [%] | pest or weed control at 280.212 g/ha (annual morning glory) [%] | pest or weed control at 280.212 g/ha (johnson grass) [%] | plant injury at 280.212 g/ha (sugar beet) [%]
1 | CC(=O)N(c1c(F)cccc1F)S(=O)(=O)c1nc2nc(C)ccn2n1 [Compound 275] | 100 | 100 | 80 | 100 | 100 | 20 | 400 | 100 | 100 | 90 | 100 | 100 | 100 | 90 | 100 | 100
2 | CCCCC(=O)N(c1c(F)cccc1F)S(=O)(=O)c1nc2nc(C)ccn2n1 [Compound 279] | 100 | 90 | 80 | 100 | 100 | 20 | 50 | 100 | 100 | 100 | 90 | 100 | 100 | 90 | 100 | 100

From patent US4740233A, “Substituted 1,2,4-triazolo[1,5-a]-pyrimidine-2-sulfonamides and compositions and methods of controlling undesired vegetation and suppressing the nitrification of ammonium nitrogen in soil” (The Dow Chemical Company, priority 1986, dated 1988)
